Experiments:
EED (1-441)-His protein = target: T1, EED (1-441)-His protein (Homo sapiens, UniProt O75530); test: EED-H3K27Me3 peptide competition binding assay by AlphaScreen; details: EED-H3K27Me3 peptide competition, AlphaScreen; read-out: (a) IC50 EED Alphascreen binding Qualified
T1 construct: 30 nM EED (1-441)-His protein
Summary of the method: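 Serially diluted compound (12 points, 3-fold) incubated 20 min with 30 nM EED(1-441)-His and 15 nM biotin-H3K27Me3(19-33) peptide in 25 mM HEPES pH 8, 0.02% Tween-20, 0.5% BSA. Ni-chelate acceptor/streptavidin donor beads (10 μg/mL each) added, 1 h rt dark; 615 nm emission normalized to controls, dose-response fit for IC50.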

[1] = target: wild type PRC2 (wtPRC2) complex (Homo sapiens, UniProt O75530); test: EED LC-MS assay (SAH production by PRC2); assay type: biochemical; details: PRC2 LC-MS assay; read-out: (b) IC50 EED LC-MS Qualified
Sequence of wild type PRC2 (wtPRC2) complex (O75530 whole entry): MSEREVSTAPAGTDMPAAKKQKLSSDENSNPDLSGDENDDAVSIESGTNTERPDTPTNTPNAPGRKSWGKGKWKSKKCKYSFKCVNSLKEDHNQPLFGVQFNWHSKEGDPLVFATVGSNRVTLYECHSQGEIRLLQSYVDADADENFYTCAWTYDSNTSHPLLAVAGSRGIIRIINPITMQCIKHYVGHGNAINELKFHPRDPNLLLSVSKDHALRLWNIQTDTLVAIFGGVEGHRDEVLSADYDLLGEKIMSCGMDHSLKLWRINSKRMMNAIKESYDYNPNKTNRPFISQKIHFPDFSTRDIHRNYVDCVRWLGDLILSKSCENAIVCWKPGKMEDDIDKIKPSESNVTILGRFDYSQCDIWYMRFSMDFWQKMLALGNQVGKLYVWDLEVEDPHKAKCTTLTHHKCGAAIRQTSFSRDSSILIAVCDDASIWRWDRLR
Sequence of wild type PRC2 (wtPRC2) complex (Q15910 whole entry partner): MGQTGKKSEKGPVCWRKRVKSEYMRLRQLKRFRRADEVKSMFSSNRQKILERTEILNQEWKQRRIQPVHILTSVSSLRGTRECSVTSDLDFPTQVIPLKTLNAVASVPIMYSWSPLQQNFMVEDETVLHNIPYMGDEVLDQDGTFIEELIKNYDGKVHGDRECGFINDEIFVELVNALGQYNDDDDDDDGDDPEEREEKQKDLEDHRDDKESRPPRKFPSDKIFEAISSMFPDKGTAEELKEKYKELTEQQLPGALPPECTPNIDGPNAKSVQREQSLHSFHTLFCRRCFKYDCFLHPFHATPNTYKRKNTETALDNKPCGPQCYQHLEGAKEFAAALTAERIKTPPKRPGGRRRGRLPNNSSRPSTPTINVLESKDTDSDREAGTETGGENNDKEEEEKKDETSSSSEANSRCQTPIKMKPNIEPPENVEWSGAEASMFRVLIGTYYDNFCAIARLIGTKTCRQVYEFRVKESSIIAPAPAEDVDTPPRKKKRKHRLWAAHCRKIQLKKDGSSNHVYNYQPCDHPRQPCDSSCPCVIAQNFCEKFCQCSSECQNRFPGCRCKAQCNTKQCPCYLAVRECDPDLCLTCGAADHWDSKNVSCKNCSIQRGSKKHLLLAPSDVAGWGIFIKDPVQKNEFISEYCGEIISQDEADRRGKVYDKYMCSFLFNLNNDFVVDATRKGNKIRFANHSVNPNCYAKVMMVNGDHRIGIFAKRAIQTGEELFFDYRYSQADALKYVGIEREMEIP
Sequence of wild type PRC2 (wtPRC2) complex (Q15022 whole entry partner): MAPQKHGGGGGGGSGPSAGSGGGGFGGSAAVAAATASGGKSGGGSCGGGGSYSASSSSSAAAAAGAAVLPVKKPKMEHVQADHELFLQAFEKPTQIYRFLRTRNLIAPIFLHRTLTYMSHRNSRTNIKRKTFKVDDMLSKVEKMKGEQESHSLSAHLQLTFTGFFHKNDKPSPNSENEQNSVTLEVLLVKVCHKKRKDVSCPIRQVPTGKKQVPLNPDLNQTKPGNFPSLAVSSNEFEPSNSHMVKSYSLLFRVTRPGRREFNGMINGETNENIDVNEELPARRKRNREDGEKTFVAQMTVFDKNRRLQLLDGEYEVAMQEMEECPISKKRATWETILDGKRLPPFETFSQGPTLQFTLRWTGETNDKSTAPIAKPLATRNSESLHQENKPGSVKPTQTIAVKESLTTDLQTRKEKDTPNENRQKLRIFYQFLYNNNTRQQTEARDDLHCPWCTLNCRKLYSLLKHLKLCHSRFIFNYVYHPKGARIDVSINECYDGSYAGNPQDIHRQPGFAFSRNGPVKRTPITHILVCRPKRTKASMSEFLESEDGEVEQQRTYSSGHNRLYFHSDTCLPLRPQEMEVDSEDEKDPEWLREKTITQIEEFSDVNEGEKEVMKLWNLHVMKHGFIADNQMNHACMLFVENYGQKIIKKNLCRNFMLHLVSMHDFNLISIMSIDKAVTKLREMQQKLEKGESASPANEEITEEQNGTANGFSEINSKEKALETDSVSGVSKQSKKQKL
Sequence of wild type PRC2 (wtPRC2) complex (Q09028 whole entry partner): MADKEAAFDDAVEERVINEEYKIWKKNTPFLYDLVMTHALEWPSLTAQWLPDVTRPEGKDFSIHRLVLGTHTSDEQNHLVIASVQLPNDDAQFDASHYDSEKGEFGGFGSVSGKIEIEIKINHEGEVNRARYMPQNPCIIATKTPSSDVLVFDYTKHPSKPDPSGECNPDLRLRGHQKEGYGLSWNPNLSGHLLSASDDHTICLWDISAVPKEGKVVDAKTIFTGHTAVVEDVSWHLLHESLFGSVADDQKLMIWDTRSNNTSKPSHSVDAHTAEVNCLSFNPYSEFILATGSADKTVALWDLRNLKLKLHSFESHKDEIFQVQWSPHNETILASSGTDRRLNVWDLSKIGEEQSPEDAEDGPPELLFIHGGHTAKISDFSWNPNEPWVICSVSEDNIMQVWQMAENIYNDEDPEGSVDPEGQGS
Sequence of wild type PRC2 (wtPRC2) complex (Q6ZN18 whole entry partner): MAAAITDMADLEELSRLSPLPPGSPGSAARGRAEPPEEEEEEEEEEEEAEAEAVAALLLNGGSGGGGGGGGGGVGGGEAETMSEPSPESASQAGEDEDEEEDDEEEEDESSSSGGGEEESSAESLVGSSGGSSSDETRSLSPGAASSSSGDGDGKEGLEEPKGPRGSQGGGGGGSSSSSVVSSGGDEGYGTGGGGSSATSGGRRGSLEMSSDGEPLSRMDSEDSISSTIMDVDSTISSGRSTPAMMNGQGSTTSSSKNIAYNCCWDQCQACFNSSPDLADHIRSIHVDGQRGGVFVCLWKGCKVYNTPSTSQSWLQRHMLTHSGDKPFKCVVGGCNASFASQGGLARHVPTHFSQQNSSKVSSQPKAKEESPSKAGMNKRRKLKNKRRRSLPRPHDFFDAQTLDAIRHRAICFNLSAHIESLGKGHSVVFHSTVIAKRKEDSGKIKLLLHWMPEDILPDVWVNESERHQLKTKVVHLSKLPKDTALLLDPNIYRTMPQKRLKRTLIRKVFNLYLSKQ
Summary of the method: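 Pentameric PRC2 (EZH2, SUZ12, EED, Rbap48, AEBP), 12 nM final, preincubated 20 min with compound and SAM, then 1.5 μM biotinylated H3K27me0 peptide, 1 μM SAM, pH 8.0, 120 min at rt. SAH quantified by LC-MS/MS with d4-SAH; control-normalized activity fitted for IC50.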

[2] = test system: H3K27 methylation in G401 cell; test: ELISA (H3K27 methylation) assay in G401 cells; assay type: cell-based, human; details: Homo sapiens, G-401, H3K27 methylation ELISA, read-out: (c) IC50 ELISA Qualified
Summary of the method: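 G401 cells treated 48 h with 3-fold dilutions (8 or 12 points, top 20 μM). Acid-extracted histones probed by ELISA for H3K27me3 or H3K27me2 with ECL readout, normalized to total H3. Percent inhibition versus DMSO fitted to dose-response curve for IC50.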

T1 sequence (O75530 whole entry): as the sequence (O75530 whole entry) above

SMILES | IC50 (EED (1-441)-His protein) | IC50 [1] | IC50 [2]
COc1cccc(F)c1CNc1ccc(-c2cnccc2C(F)F)c2nncn12 [Example 258, 8-(4-(difluoromethyl)pyridin-3-yl)-N-(2-fluoro-6-methoxybenzyl)-[1,2,4] triazolo [4,3-a]pyridin-5-amine] | 24.5 nM | 71.6 nM | 16.7 nM
COc1cccc(F)c1CNc1ccc(-c2cnc(N(C)C)nc2C)c2nncn12 [Example 260, 8-(2-(dimethylamino)-4-methylpyrimidin-5-yl)-N-(2-fluoro-6-methoxybenzyl)-[1,2,4]triazolo[4,3-a]pyridin-5-amine] | 35.4 nM | 45.9 nM | 21.7 nM
COc1cccc(F)c1CNc1ccc(-c2cccnc2C(F)F)c2nncn12 [Example 265, 8-(2-(difluoromethyl)pyridin-3-yl)-N-(2-fluoro-6-methoxybenzyl)-[1,2,4] triazolo[4,3-a]pyridin-5-amine] | 14.1 nM | 6.3 nM | 7.1 nM
COc1cccc(F)c1CNc1ccc(-c2ccc(N3CCOCC3)nc2C)c2nncn12 [Example 266, N-(2-fluoro-6-methoxybenzyl)-8-(2-methyl-6-morpholinopyridin-3-yl)-[1,2,4]triazolo[4,3-a]pyridin-5-amine] | 8.9 nM | 56.2 nM | 9.9 nM
COc1cccc(F)c1CNc1ccc(-c2cnc(Cl)cc2C)c2nncn12 [Example 267, 8-(6-chloro-4-methylpyridin-3-yl)-N-(2-fluoro-6-methoxybenzyl)-[1,2,4]triazolo[4,3-a] pyridin-5-amine] | 17 nM | 75.8 nM | 14.6 nM
COc1cccc(F)c1CNc1ccc(-c2cnc(C)cc2C)c2nncn12 [Example 268, 8-(4,6-dimethylpyridin-3-yl)-N-(2-fluoro-6-methoxybenzyl)-[1,2,4]triazolo[4,3-a] pyridin-5-amine] | 19.4 nM | 34 nM | 21.4 nM
COc1cccc(F)c1CNc1ccc(-c2ccc(C(=O)N(C)C)nc2C)c2nncn12 [Example 269, 5-(5-((2-fluoro-6-methoxybenzyl)amino)-[1,2,4]triazolo[4,3-a]pyridin-8-yl)-N,N,6-trimethylpicolinamide] | 8.9 nM | 60.1 nM | 4.8 nM
COc1cccc(F)c1CNc1ccc(-c2cnc(C3CC3)cc2C)c2nncn12 [Example 270, 8-(6-cyclopropyl-4-methylpyridin-3-yl)-N-(2-fluoro-6-methoxybenzyl)-[1,2,4]triazolo[4,3-a]pyridin-5-amine] | 27.3 nM | 106 nM | 42.3 nM
CCc1cc(S(C)(=O)=O)ccc1-c1ccc(NCc2c(F)cccc2OC)n2cnnc12 [Example 271, 8-(2-ethyl-4-(methylsulfonyl)phenyl)-N-(2-fluoro-6-methoxybenzyl)-[1,2,4]triazolo[4,3-a]pyridin-5-amine] | 33.2 nM | 80.3 nM | 30 nM
CCc1ccncc1-c1ccc(NCc2c(F)cccc2OC)n2cnnc12 [Example 272, 8-(4-ethylpyridin-3-yl)-N-(2-fluoro-6-methoxybenzyl)-[1,2,4]triazolo[4,3-a]pyridin-5-amine] | 34.7 nM | 57.5 nM | 61.8 nM
COc1cccc(F)c1CNc1ccc(-c2cncnc2C(C)C)c2nncn12 [Example 273, N-(2-fluoro-6-methoxybenzyl)-8-(4-isopropylpyrimidin-5-yl)-[1,2,4] triazolo[4,3-a]pyridin-5-amine] | 69 nM | 99.7 nM | 61.3 nM
COc1cccc(F)c1CNc1ccc(-c2c(C)nn(CC(C)O)c2C)c2nncn12 (stereo not drawn) [Example 274, 1-(4-(5-((2-fluoro-6-methoxybenzyl)amino)-[1,2,4]triazolo[4,3-a]pyridin-8-yl)-3,5-dimethyl-1H-pyrazol-1-yl)propan-2-ol] | 14.6 nM | 25.3 nM | 15.4 nM
COc1cccc(F)c1CNc1ccc(-c2c(C)nn(C3CC3)c2C)c2nncn12 [Example 275, 8-(1-cyclopropyl-3,5-dimethyl-1H-pyrazol-4-yl)-N-(2-fluoro-6-methoxybenzyl)-[1,2,4]triazolo[4,3-a] pyridin-5-amine] | 23.3 nM | 71.8 nM | 21.6 nM
COc1cccc(F)c1CNc1ccc(-c2ccnc(F)c2C)c2nncn12 [Example 276, 8-(2-fluoro-3-methylpyridin-4-yl)-N-(2-fluoro-6-methoxybenzyl)-[1,2,4]triazolo[4,3-a] pyridin-5-amine] | 13.9 nM | 50.5 nM | 8 nM
COc1cccc(F)c1CNc1ccc(-c2ccnc(C(F)F)c2C)c2nncn12 [Example 277, 8-(2-(difluoromethyl)-3-methylpyridin-4-yl)-N-(2-fluoro-6-methoxybenzyl)-[1,2,4]triazolo[4,3-a]pyridin-5-amine] | 14.2 nM | 32.2 nM | 12 nM

Continued, values first:

IC50 (EED (1-441)-His protein) | IC50 [1] | IC50 [2] | SMILES
11 nM | 27 nM | 6.4 nM | COc1cccc(F)c1CNc1ccc(-c2ccnc(CF)c2C)c2nncn12 [Example 278, N-(2-fluoro-6-methoxybenzyl)-8-(2-(fluoromethyl)-3-methylpyridin-4-yl)-[1,2,4] triazolo[4,3-a]pyridin-5-amine]
15.8 nM | 75.1 nM | 12.1 nM | COc1cccc(F)c1CNc1ccc(-c2cc(F)ncc2C)c2nncn12 [Example 279, 8-(2-fluoro-5-methylpyridin-4-yl)-N-(2-fluoro-6-methoxybenzyl)-[1,2,4] triazolo[4,3-a]pyridin-5-amine]
23.7 nM | 317 nM | 11.8 nM | CCc1ncncc1-c1ccc(NCc2c(F)cccc2OC)n2cnnc12 [Example 280, 8-(4-ethylpyrimidin-5-yl)-N-(2-fluoro-6-methoxybenzyl)-[1,2,4]triazolo[4,3-a]pyridin-5-amine]
23 nM | 124 nM | 16.9 nM | COc1cccc(F)c1CNc1ccc(-c2cc(C(F)(F)F)ncc2C)c2nncn12 [Example 281, N-(2-fluoro-6-methoxybenzyl)-8-(5-methyl-2-(trifluoromethyl)pyridin-4-yl)-[1,2,4]triazolo[4,3-a] pyridin-5-amine]
10.7 nM | 15.7 nM | 8.1 nM | COc1cccc(F)c1CNc1ccc(-c2cn(C(C)C)nc2C)c2nncn12 [Example 282, N-(2-fluoro-6-methoxybenzyl)-8-(1-isopropyl-3-methyl-1H-pyrazol-4-yl)-[1,2,4]triazolo[4,3-a]pyridin-5-amine]
39.6 nM | 576 nM | 62.1 nM | CCc1ncccc1-c1ccc(NCc2c(F)cccc2OC)n2cnnc12 [Example 283, 8-(2-ethylpyridin-3-yl)-N-(2-fluoro-6-methoxybenzyl)-[1,2,4]triazolo[4,3-a]pyridin-5-amine]
9.6 nM | 44.4 nM | 10.5 nM | COc1cccc(F)c1CNc1ccc(-c2cnc(C3CC3)nc2C)c2nncn12 [Example 284, 8-(2-cyclopropyl-4-methylpyrimidin-5-yl)-N-(2-fluoro-6-methoxybenzyl)-[1,2,4] triazolo[4,3-a]pyridin-5-amine]
10.1 nM | 38.6 nM | 6.6 nM | COc1cccc(F)c1CNc1ccc(-c2ccnc(C)c2C)c2nncn12 [Example 287, 8-(2,3-dimethylpyridin-4-yl)-N-(2-fluoro-6-methoxybenzyl)-[1,2,4]triazolo[4,3-a] pyridin-5-amine]
12.7 nM | 23.4 nM | 6.3 nM | COc1cccc(F)c1CNc1ccc(-c2cc(C)nn2C)c2nncn12 [Example 288, 8-(1,3-dimethyl-1H-pyrazol-5-yl)-N-(2-fluoro-6-methoxybenzyl)-[1,2,4]triazolo[4,3-a] pyridin-5-amine]
28.4 nM | 128 nM | 30.3 nM | COc1cccc(F)c1CNc1ccc(-c2cnn(C(C)C)c2C)c2nncn12 [Example 289, N-(2-fluoro-6-methoxybenzyl)-8-(1-isopropyl-5-methyl-1H-pyrazol-4-yl)-[1,2,4] triazolo[4,3-a]pyridin-5-amine]
30.7 nM | 33.2 nM | 4 nM | COc1cccc(F)c1CNc1ccc(-c2cncnc2C(F)F)c2nncn12 [Example 290, 8-(4-(difluoromethyl)pyrimidin-5-yl)-N-(2-fluoro-6-methoxybenzyl)-[1,2,4] triazolo[4,3-a]pyridin-5-amine]
29 nM | 195 nM | 11.4 nM | COc1cccc(F)c1CNc1ccc(-c2ccnn2C2CC2)c2nncn12 [Example 292, 8-(1-cyclopropyl-1H-pyrazol-5-yl)-N-(2-fluoro-6-methoxybenzyl)-[1,2,4] triazolo[4,3-a]pyridin-5-amine]
31.4 nM | 20.1 nM | 10.6 nM | COc1cccc(F)c1CNc1ccc(-c2ccc(S(C)(=O)=O)nc2C(F)F)c2nncn12 [Example 293, 8-(2-(difluoromethyl)-6-(methylsulfonyl)pyridin-3-yl)-N-(2-fluoro-6-methoxybenzyl)-[1,2,4] triazolo[4,3-a]pyridin-5-amine]
